# Where a name gives a salt, the structure may show the parent alone.
# Key:
# NK S2676 Soybean = assay: Phytotoxicity rating after foliar spray, Roundup Ready soybean; conditions: Table 5, glyphosate-tolerant crop, n = 4 plants
# Protocol: (§1) In all experiments, deionized ultra-pure water was used in preparing solutions. Spray solutions were used as soon as possible after mixing.
# (§2) COC was added to all spray solutions at a rate of 0.10% (v/v). For all treatments containing both an herbicide and a salicylate, these materials were mixed and applied in a single spray solution (commonly known as a tank mix). After spraying, plants were moved to the greenhouse and arranged in a randomized complete block experimental design. Plants were evaluated for phytotoxicity/herbicidal effects after spraying by assessing damage according to the following scale:
# (§3) 5=100% leaf area affected (dead)
# (§4) All the data were subject to an analysis of variance, and the mean separations were determined with Duncan's multiple range test at α=0.05.
# Roundup Ready crops are tolerant to glyphosate. This tolerance is conferred by genetic modification of the crop species by the insertion of a glyphosate-insensitive EPSP synthase.
# Giant Foxtail = assay: Phytotoxicity rating after foliar spray, Giant Foxtail; assay type: in vivo, Setaria faberi (giant foxtail); conditions: Table 3; glyphosate 0.2% (v/v), alone or with 5 mM NaSA; COC 0.1%; mean rating 1-5; n = 5 plants
# Protocol: as §1, §2, §3, §4
# Lambsquarters = assay: Phytotoxicity rating after foliar spray, Lambsquarters; assay type: in vivo, Chenopodium album (lambsquarter); conditions: Table 4, alone or with 5 mM NaSA, COC 0.1%, mean rating 1-5, n = 6 plants
# Protocol: as §1, §2, §3, §4
# tobacco = assay: Phytotoxicity rating after foliar spray, tobacco; assay type: in vivo, Nicotiana tabacum (tobacco); conditions: alone or with 5 mM NaSA, COC 0.1%, mean rating 1-5, n = 5 plants
# Protocol: as §1, §2, §3, §4
# [1] = Table 2, glyphosate or Roundup 0.2% (v/v glyphosate)
# [2] = glyphosate 0.1% (v/v) + COC 0.1%, mean rating 1-5
structure (smiles),measurement,setting,value
"O=C([O-])c1ccccc1O.[Na+] [NaSA, sodium salicylate]",Phytotoxicity at 4d,"NK S2676 Soybean; NaSA 5 mM + COC 0.1%, mean rating 1 = no damage to 5 = dead",1.5 B
"O=C(O)CNCP(=O)(O)O [Glyphosate, N-(phosphonomethyl)glycine, monoisopropylamine salt]",Phytotoxicity at 8d,Giant Foxtail,3.8 A
same,Phytoxicity at 6d,Giant Foxtail,2.0 B
same,Phytoxicity at 11d,Giant Foxtail,4.9 B
same,Phytotoxicity at 3d,Lambsquarters; glyphosate 0.004%,1.0 A
same,Phytotoxicity at 7d,Lambsquarters; glyphosate 0.004%,1.3 AB
same,Phytotoxicity at 11d,Lambsquarters; glyphosate 0.004%,1.3 AB
same,Phytotoxicity at 3d,Lambsquarters; glyphosate 0.02%,1.0 A
same,Phytotoxicity at 7d,Lambsquarters; glyphosate 0.02%,1.5 ABC
same,Phytotoxicity at 11d,Lambsquarters; glyphosate 0.02%,2.1 BC
same,Phytotoxicity at 3d,Lambsquarters; glyphosate 0.04%,1.0 A
same,Phytotoxicity at 7d,Lambsquarters; glyphosate 0.04%,1.6 BC
same,Phytotoxicity at 11d,Lambsquarters; glyphosate 0.04%,2.4 C
same,Phytotoxicity at 3d,Lambsquarters; glyphosate 0.2% (v/v),1.4 BC
same,Phytotoxicity at 7d,Lambsquarters; glyphosate 0.2% (v/v),2.4 D
same,Phytotoxicity at 11d,Lambsquarters; glyphosate 0.2% (v/v),4.0 D
same,Phytotoxicity at 4d,"tobacco; Table 1, glyphosate 0.04%",1.2 A
same,Phytotoxicity at 6d,"tobacco; Table 1, glyphosate 0.04%",1.7 BC
same,Phytotoxicity at 8d,"tobacco; Table 1, glyphosate 0.04%",2 B
same,Phytotoxicity at 11d,"tobacco; Table 1, glyphosate 0.04%",3.1 B
same,Phytotoxicity at 14d,"tobacco; Table 1, glyphosate 0.04%",3.6 B
same,Phytotoxicity at 4d,"tobacco; Table 1, glyphosate 0.2% (v/v)",1.5 B
same,Phytotoxicity at 6d,"tobacco; Table 1, glyphosate 0.2% (v/v)",2.2 CD
same,Phytotoxicity at 8d,"tobacco; Table 1, glyphosate 0.2% (v/v)",3.1 D
same,Phytotoxicity at 11d,"tobacco; Table 1, glyphosate 0.2% (v/v)",4.1 D
same,Phytotoxicity at 14d,"tobacco; Table 1, glyphosate 0.2% (v/v)",4.9 C
same,Phytotoxicity at 5f,tobacco; [1],1.5 BC
same,Phytotoxicity at 2d,tobacco; [1],1.3 B
same,Phytotoxicity at 8d,tobacco; [1],3.3 C
same,Phytotoxicity at 13d,tobacco; [1],4.9 B
same,Phytotoxicity at 1d,NK S2676 Soybean; [2],1.6 BC
same,Phytotoxicity at 4d,NK S2676 Soybean; [2],1.8 BC
same,Phytotoxicity at 6d,NK S2676 Soybean; [2],1.9 C
same,Phytotoxicity at 11d,NK S2676 Soybean; [2],1.9 D

# Source: US20030186814A1, “Enhanced herbicide composition” (Valent BioSciences Corporation, priority 2002, published 2003)
